Converted amounts (≈) assume the structure as drawn.
Tests used:
Format in all cases: cell-based, murine
[1] = test system: LPS-stimulated RAW 264.7 cells; test: Inhibition of LPS-induced nitric oxide production (Griess nitrite measurement); details: LPS (100 ng/mL)-stimulated RAW 264.7 cells, 24 h, Griess reaction, mean ± SD of three replicates; for IC50: Mus musculus, RAW264.7, read-out: Inhibition of NO Production IC50
Description: (§1) Nitric oxide (NO) is derived from the oxidation of L-arginine by NO synthase (NOS) and is recognized as a mediator and regulator in biological actions, especially in inflammatory responses. In inflammation and carcinogenesis conditions, there is an increased production of NO by inducible NO synthase (iNOS). Thus, inhibitors of NO might be of therapeutic importance in preventing pathological conditions catalyzed by inflammation. Macrophages contain various chemical mediators that may be responsible for several inflammatory stages and have been expected to be an origin of inflammation. iNOS mainly exists in macrophages and can be induced by pro-inflammatory agents lipopolysaccharides (LPS). […] In this study, the inhibitory activity toward NO production of four sesquiterpenoids (1, 4, 5, and 6) and eight diterpenoids (8–15) was evaluated by measurement of nitrite/nitrate in LPS-stimulated RAW 264.7 cells. To search for the appropriate concentrations for the above assay, these 12 compounds were first tested their cytotoxic activity against the RAW 264.7 cells, and no significant cytotoxic activities were observed under all tested concentrations (Table 3).
(§2) A murine macrophage cell line RAW264.7 (BCRC No. 60001) was obtained from the Bioresources Collection and Research Center (BCRC) of the Food Industry Research and Development Institute (Hsinchu, Taiwan). Cells were maintained in Dulbecco’s Modified Eagle Medium (DMEM, Sigma, St. Louis, MO, USA) supplemented with 10% fetal bovine serum (FBS, Sigma). Cells were cultured in a humidified atmosphere with 5% CO2 at 37 °C and subcultured every three days at a dilution of 1:5 using 0.05% trypsin-0.02% EDTA in Ca^2+-, Mg^2+-free phosphate-buffered saline (DPBS).
The anti-inflammatory activity of compounds was evaluated by using a nitric oxide (NO) inhibitory activity assay. As a stable NO metabolite, production of NO was indirectly determined by Griess reaction to measure the concentration of nitrite in the culture medium. The cells were incubated with test compounds (0, 2.5, 5, 10, 20 and 40 μg/mL) in the presence of LPS (100 ng/mL) at 37 °C for 24 h. Then, cells were dispensed into 96-well plates, and 100 μL of each supernatant was reacted with an equal volume of Griess reagent (1% sulfanilamide, 0.1% naphthyl ethylenediamine dihydrochloride and 5% phosphoric acid) and incubated at room temperature for 10 min. Absorbance was then measured at 540 nm using a Micro-Reader (Molecular Devices Orleans Drive, Sunnyvale, CA, USA). A standard curve was generated, using freshly prepared 0–100 μM […] dissolved in assay buffer, to quantitate unknown nitrite in samples.
(§3) The data is expressed as means ± standard errors (SE). The IC50 values were calculated from the dose curves using a non-linear regression algorithm (SigmaPlot 8.0; SPSS Inc., Chicago, IL, USA, 2002). Statistical evaluation was carried out by one-way analysis of variance (ANOVA followed by Scheffe’s multiple range tests).

[2] = Cell viability / cytotoxicity (MTT); details: mouse, RAW 264.7 macrophage cells, RAW 264.7 cells, 24 h with test compound in presence of 100 ng/mL LPS, mean ± SD of three replicates
Description: as §1, §2
(§4) Cells (2 × 10^5) were cultured in 96-well plate containing DMEM supplemented with 10% FBS. After 24 h of cells incubation, cells were cultured with test compounds in the presence of 100 ng/mL LPS (lipopolysaccharide) for 24 h. Untreated cells served as the control. After that, the cells were washed twice with DPBS and 100 μL of 0.5 mg/mL MTT was added to each well for further 2 h incubation at 37 °C. The medium was then discarded, and the colored crystals of produced formazan were dissolved in 100 μL dimethyl sulfoxide (DMSO). After 30 min incubation, the absorbance was measured at 570 nm on a microplate reader (Molecular Devices).
as §3

RAW 264.7 cells = test: Cell viability / cytotoxicity (MTT); details: 24 h with test compound in presence of 100 ng/mL LPS, mean ± SD of three replicates
Description: as §1, §2, §4, §3

IC50 [1] [µg/mL]	Compound	IC50 at 24 h [2] [µg/mL]	Inhibition of NO Production IC50 [1] [µg/mL]	Cytotoxicity IC50 (RAW 264.7 cells) [µg/mL]
> 20	CC1CCC2(C)CC3CCC12C(O)C3(C)C (stereo not drawn) [Compound 1, 2α-hydroxy-3,3,6α,9β-tetramethyltricyclo[4,3,2^1,4]undecane]	> 20		
	CC(=O)OC(C)(C)C1CCC2(C)CCCC(C)(O)C2C1 (stereo not drawn) [Compound 5, 11-acetoxyeudesman-4α-ol]		>20	>20
> 20	Cc1ccc(C(C)C)c2c1[C@H](O)[C@@H](O)[C@@H](C)C2 [Compound 6, 2α,3β-dihydroxy-4β-methyl-6,8,10-cadinatriene]	> 20		
> 20	C=C[C@]1(C)C=C2CC[C@@H]3[C@](C)(CCC[C@@]3(C)C(=O)O)[C@H]2CC1 [Compound 8, sandaracopimaric acid]	> 20		
> 20	C=CC(C)=CCC1C(=C)CCC2C(C)(CO)CCCC12C (centres unmarked) [Compound 9, elliotinol]	> 20		
11.4 ± 0.62 (≈ 41.1 µM)	CC(=O)C=CC1C(C)(O)CCC2C(C)(C)CCCC21C (stereo not drawn) [Compound 10, 8α-hydroxy-15,16-bisnorlabda-11-en-13-one]	> 20		
> 20	C=CC(=C)CCC1C(C)(O)CCC2C(C)(C=O)CCCC12C (centres unmarked) [Compound 11]	> 20		
> 20	C=C1CCC2C(C)(CO)CCCC2(C)C1C=CC(C)=O (centres unmarked) [Compound 12]	> 20		
> 20	C=CC1(C)OC2(C)CCC3C(C)(CO)CCCC3(C)C2CC1O (centres unmarked) [Compound 13]	> 20		
> 20	C=C1CCC2C(C)(C(=O)O)CCCC2(C)C1CC1OCC=C1C (centres unmarked) [Compound 14]	> 20		
13.1 ± 0.55 (≈ 42.4 µM)	C=CC(C)(O)CCC1C(C)(O)CCC2C(C)(C)CCCC21C (centres unmarked) [Compound 15]	> 20		
65.4 ± 1.8 (≈ 183 µM)	COc1ccc2c(c1)c(CC(=O)O)c(C)n2C(=O)c1ccc(Cl)cc1 [indomethacin, reference compound]	> 100		

Compound	IC50 [1] [µg/mL]	IC50 at 24 h [2] [µg/mL]	Inhibition of NO Production IC50 [1] [µg/mL]	Cytotoxicity IC50 (RAW 264.7 cells) [µg/mL]
CC(=O)OC(C)(C)C1CCC2(C)CCCC(C)(O)C2C1 (stereo not drawn) [Compound 4, 11-acetoxyeudesman-4β-ol]	> 20	> 20		

From PMC6273599, “Sesquiterpenoids and Diterpenoids from the Wood of Cunninghamia konishii and Their Inhibitory Activities against NO Production” (Molecules, 2016)
